Measurements from US20240368050A1, “ENHANCED PERFORMANCE UREASE INHIBITOR, COMPOSITIONS AND METHODS THEREOF” (priority 2023, published 2024).
Like-named read-outs stand apart in the source and are kept apart here.

How the values were obtained:
[1] = tested on: urease; format: biochemical
[2] = tested on: urease; test: Longevity of urea protection by urease inhibitor; conditions: ~0.1% NBPT; according to the literature and own studies
From the text: Urea can only benefit plants as an aqueous solution, so the protecting urease inhibitor NBPT must be also dissolved and spread along with urea.

[3] = ammonia after 1 week, NBPT (PG, 26.70%, 8 mg) alone or oxidant added per stated mg of NBPT
[4] = ammonia after 3 days, NBPT (PG, 26.70%, 8 mg) alone or oxidant added per stated mg of NBPT

Compound: OO [Hydrogen Peroxide, 10%, Hydrogen Peroxide]
- Urease Inhibitor Test with additional oxidant components (ammonia ppm), 1 week [1]: 400 ppm
- Urease Inhibitor Test with additional oxidant components (ammonia ppm), 3 days [1]: 0.1 ppm

Compound: CCCCNP(N)(N)=S [NBPT, N-(n-Butyl)thiophosphoric triamide, reference compound]
- Urease Inhibitor Test with additional oxidant components (ammonia ppm), 1 week [1, 3]: 800 ppm
- Urease Inhibitor Test (ammonia ppm), 1 week ([1]; ammonia after 1 week, treatment + about 5.0 g urea in 10 mL water on 60 g soil, sealed): 35 ppm
- Urease Inhibitor Test (ammonia ppm), 2 weeks ([1]; ammonia after 2 weeks, treatment + about 5.0 g urea in 10 mL water on 60 g soil, sealed): 600 ppm
- Urease Inhibitor Test with additional oxidant components (ammonia ppm), 3 days [1, 4]: 5 ppm
- Urease Inhibitor Test (ammonia ppm), 3 days ([1]; ammonia after 3 days, treatment + about 5.0 g urea in 10 mL water on 60 g soil, sealed): 13 ppm
- longevity of urea protection [2]: around one week

Compound: CCCCNP(N)(N)=O [NBPTO, oxidized N-(n-Butyl)thiophosphoric triamide]
- Urease Inhibitor Test (ammonia ppm), 1 week [1]: 0.6 ppm
- Urease Inhibitor Test (ammonia ppm), 2 weeks [1]: 1 ppm
- Urease Inhibitor Test (ammonia ppm), 3 weeks [1]: 5 ppm
- Urease Inhibitor Test (ammonia ppm), 3 days [1]: 0.05 ppm
- urease inhibition increase in comparison with NBPT [1]: up to eight-fold urease inhibition increase

Compound: O=S(=O)([O-])OOS(=O)(=O)[O-].[K+].[K+] [Potassium Persulfate]
- Urease Inhibitor Test with additional oxidant components (ammonia ppm), 1 week [1, 3]: 140 ppm
- Urease Inhibitor Test with additional oxidant components (ammonia ppm), 3 days [1, 4]: 1 ppm
